Results from patent US20220340564A1, “ANTIBACTERIAL COMPOUNDS” (Janssen Sciences Ireland Unlimited Company, priority 2019, published 2022).

Tested on: Mycobacterium tuberculosis strain EH4.0 expressing green-fluorescent protein (GFP)
Assay: microbe, parasite or virus in culture
Type: cell-based
Conditions: 168 h, read-out: pIC50 (converted)

Row | Compound | IC50 [µM]
1 | CCC1=NN(c2ccc(CNC(=O)c3c(CC)nc4ccc(Cl)cn34)cc2)CCN1S(=O)(=O)C(F)(F)F [Compound 2] | 0.0158
2 | CCc1nc2n(c1C(=O)NCc1ccc(N3CCN(S(=O)(=O)C(F)(F)F)C=N3)cc1)CCCC2 [Compound 3] | 0.0316
3 | CCc1nc2ccc(Cl)cn2c1C(=O)NCc1ccc(N2C=NN(C)CC2)cc1 [Compound 4] | 0.0398
4 | CCc1nc2ccc(Cl)cn2c1C(=O)NCc1ccc(N2CCN(S(=O)(=O)C(F)(F)F)C=N2)c(C)c1 [Compound 5] | 0.00794
5 | O=C(NCc1ccc(N2CCN(S(=O)(=O)C(F)(F)F)C=N2)cc1)c1c(C2CC2)nc2ncc(Cl)cn12 [Compound 7] | 0.0631
6 | CCc1nc2ncc(F)cn2c1C(=O)NCc1ccc(N2CCN(S(=O)(=O)C(F)(F)F)C=N2)cc1 [Compound 10] | 0.0631
7 | COc1ccn2nc(C)c(C(=O)NCc3ccc(N4CCN(S(=O)(=O)C(F)(F)F)C=N4)cc3)c2c1 [Compound 14] | 0.00631
8 | CCc1nc2ccc(Cl)cn2c1C(=O)NCc1ccc(N2CCN(C)C=N2)cc1 [Compound 15] | 0.0251
9 | CCc1nc2ccc(Cl)cn2c1C(=O)NCc1ccc(N2CCN(S(=O)(=O)CC(C)C)C=N2)cc1 [Compound 17] | 0.02
10 | CCc1nc2ccc(Cl)cn2c1C(=O)NCc1ccc(N2CCN(C(C)=O)C=N2)cc1 [Compound 18] | 0.0158
11 | CCc1nc2ccc(Cl)cn2c1C(=O)NCc1ccc(N2CCN(S(=O)(=O)CCOC)C=N2)cc1 [Compound 19] | 0.0398
12 | CCc1nc2ccc(Cl)cn2c1C(=O)NCc1ccc(N2CCN(S(=O)(=O)C(F)(F)F)C(C)=N2)cc1 [Compound 21] | 0.00251
13 | CCc1nc2ccc(Cl)cn2c1C(=O)NCc1ccc(N2CCN(S(=O)(=O)C(F)(F)F)C=N2)cc1OC [Compound 22] | 0.398
14 | CCc1nc2ncc(Cl)cn2c1C(=O)NCc1ccc(N2CCN(S(=O)(=O)CC(C)C)C=N2)cc1 [Compound 23] | 0.0126
15 | CCc1nc2ncc(Cl)cn2c1C(=O)NCc1ccc(N2CCN(C(C)=O)C=N2)cc1 [Compound 24] | 0.0158
16 | CCc1nc2ncc(Cl)cn2c1C(=O)NCc1ccc(N2CCN(S(=O)(=O)C(F)(F)F)C(OC)=N2)cc1 [Compound 27] | 0.002
17 | CCc1nc2ncc(COC)cn2c1C(=O)NCc1ccc(N2CCN(S(=O)(=O)C(F)(F)F)C=N2)cc1 [Compound 33] | 0.0251
18 | COC1=NN(c2ccc(CNC(=O)c3c(C)nn4ccc(OC)cc34)cc2)CCN1S(=O)(=O)C(F)(F)F [Compound 34] | 0.01
19 | CCc1nc2ccc(Cl)cn2c1C(=O)NCc1cc(F)c(N2CCN(S(=O)(=O)C(F)(F)F)C=N2)c(F)c1 [Compound 35] | 0.00501
20 | CCc1nc2ccc(Cl)cn2c1C(=O)NCc1ccc(N2CCN(S(=O)(=O)C(F)(F)F)C(OC)=N2)c(F)c1 [Compound 37] | 0.00398
21 | CCc1nc2ccc(Cl)cn2c1C(=O)NCc1ccc(N2CCN(C=O)C=N2)cc1 [Compound 38] | 0.0631
22 | CCc1nc2c(Cl)c(OC)ccn2c1C(=O)NCc1ccc(N2CCN(S(=O)(=O)C(F)(F)F)C=N2)cc1 [Compound 39] | 0.0794
23 | CCc1nc2ccc(Cl)cn2c1C(=O)NCc1ccc(N2CCN(S(=O)(=O)C(F)(F)F)C(CCO)=N2)cc1 [Compound 40] | 0.0631
24 | CCc1nc2ncc(Cl)cn2c1C(=O)NCc1ccc(N2CCN(S(=O)(=O)C(F)(F)F)C(CCO)=N2)cc1 [Compound 41] | 0.0501

Row | Compound | IC50 [µM]
25 | CCc1nc2ccc(OC)cn2c1C(=O)NCc1ccc(N2CCN(S(=O)(=O)C(F)(F)F)C=N2)cc1 [Compound 42] | 0.00631
26 | CCOc1ccc2nc(CC)c(C(=O)NCc3ccc(N4CCN(S(=O)(=O)C(F)(F)F)C=N4)cc3)n2c1 [Compound 43] | 0.01
27 | CCc1nc2cc(Cl)c(OC)cn2c1C(=O)NCc1ccc(N2CCN(S(=O)(=O)C(F)(F)F)C(OC)=N2)cc1 [Compound 45] | 0.0398
28 | CCc1nc2cc(OC)c(Cl)cn2c1C(=O)NCc1ccc(N2CCN(S(=O)(=O)C(F)(F)F)C(OC)=N2)c(F)c1 [Compound 46] | 0.1
29 | CCc1nc2ccc(OC)cn2c1C(=O)NCc1ccc(N2CCN(S(=O)(=O)C(F)(F)F)C(OC)=N2)c(F)c1 [Compound 48] | 0.00158
30 | CCc1nc2cc(Cl)c(OC)cn2c1C(=O)NCc1ccc(N2CCN(S(=O)(=O)C(F)(F)F)C(OC)=N2)c(F)c1 [Compound 49] | 0.0234
31 | CCc1nc2ncc(OC)cn2c1C(=O)NCc1ccc(N2CCN(S(=O)(=O)C(F)(F)F)C(OC)=N2)c(F)c1 [Compound 50] | 0.00107
32 | CCc1nc2cc(OC)ccn2c1C(=O)NCc1ccc(N2CCN(S(=O)(=O)C(F)(F)F)C=N2)cc1 [Compound 51] | 0.0457
33 | CCc1nc2cc(OC)ccn2c1C(=O)NCc1ccc(N2CCN(S(=O)(=O)C(F)(F)F)C(OC)=N2)cc1 [Compound 52] | 0.0417
34 | CCc1nc2cc(OC)c(OC)cn2c1C(=O)NCc1ccc(N2CCN(S(=O)(=O)C(F)(F)F)C(OC)=N2)c(F)c1 [Compound 53] | 0.0813
35 | CCc1nc2ccc(Cl)cn2c1C(=O)NCc1ccc(N2CCN(S(=O)(=O)C(F)(F)F)C(CCOC)=N2)cc1 [Compound 55] | 0.0257
36 | CCc1nc2ccc(Cl)cn2c1C(=O)NCc1ccc(N2CCNC=N2)cc1 [Compound 56] | 158
37 | CCc1nc2n(c1C(=O)NCc1ccc(N3CCNC=N3)cc1)CCCC2 [Compound 57] | ≥ 0.501
38 | CCc1nc2n(c1C(=O)NCc1ccc(N3CCN(S(=O)(=O)CCOC)C=N3)cc1)CCCC2 [Compound 58] | 0.251
39 | CCc1nc2ccc(Cl)cn2c1C(=O)NCc1ccc(N2CCN(C)C(C)=N2)cc1 [Compound 59] | 0.2
40 | CCc1nc2ncc(C(=O)N(C)C)cn2c1C(=O)NCc1ccc(N2CCN(S(=O)(=O)C(F)(F)F)C=N2)cc1 [Compound 60] | 0.2
41 | CCc1nc2ncc(C(=O)NC)cn2c1C(=O)NCc1ccc(N2CCN(S(=O)(=O)C(F)(F)F)C=N2)cc1 [Compound 61] | ≥ 0.501
42 | CCc1nc2ncc(C(C)=O)cn2c1C(=O)NCc1ccc(N2CCN(S(=O)(=O)C(F)(F)F)C=N2)cc1 [Compound 62] | ≥ 0.501
43 | CCc1nc2ccc(CCCOC)cn2c1C(=O)NCc1ccc(N2CCN(S(=O)(=O)C(F)(F)F)C=N2)cc1 [Compound 63] | ≥ 0.501
44 | CCc1nc2cc(OC)c(Cl)cn2c1C(=O)NCc1ccc(N2CCN(S(=O)(=O)C(F)(F)F)C=N2)cc1 [Compound 64] | 0.316
45 | CCc1nc2ccc(N3CCCC3)cn2c1C(=O)NCc1ccc(N2CCN(S(=O)(=O)C(F)(F)F)C=N2)cc1 [Compound 65] | ≥ 0.501
46 | CCc1nc2ccc(Cl)cn2c1C(=O)NCc1ccc(N2CCN(C(=O)C(F)(F)F)C=N2)cc1 [Compound 66] | 0.251
47 | CCc1nc2cc(Cl)c(OC)cn2c1C(=O)NCc1ccc(N2CCN(S(=O)(=O)C(F)(F)F)C=N2)cc1 [Compound 67] | 0.2
48 | CCc1nc2cc(OC)c(Cl)cn2c1C(=O)NCc1ccc(N2CCN(S(=O)(=O)C(F)(F)F)C(OC)=N2)cc1 [Compound 68] | ≥ 0.501

Row | Compound | IC50 [µM]
49 | CCc1nc2ccc(Cl)cn2c1C(=O)NCc1ccc(N2CCN(Cc3nc(C(F)(F)F)cs3)C=N2)cc1 [Compound 69] | 0.126
50 | CCc1nc2cccc(Cl)n2c1C(=O)NCc1ccc(N2CCN(S(=O)(=O)C(F)(F)F)C(OC)=N2)cc1 [Compound 70] | ≥ 0.501
51 | CCc1nc2ccc(C#N)cn2c1C(=O)NCc1ccc(N2CCN(S(=O)(=O)C(F)(F)F)C(OC)=N2)cc1 [Compound 71] | 0.166
52 | CCc1nc2ccc(C#N)cn2c1C(=O)NCc1ccc(N2CCN(S(=O)(=O)C(F)(F)F)C=N2)cc1 [Compound 72] | 0.158
53 | CCc1nc2ccc(Cl)cn2c1C(=O)NCc1ccc(N2CCN(S(=O)(=O)C(F)(F)F)C(CN(C)C)=N2)cc1 [Compound 74] | 0.00676
54 | CCc1nc2cc(OC)ccn2c1C(=O)NCc1ccc(N2CCN(S(=O)(=O)C(F)(F)F)C(OC)=N2)c(F)c1 [Compound 75] | 0.00631
55 | CCc1nc2ccc(Cl)cn2c1C(=O)NCc1ccc(N2CCN(c3nccs3)C=N2)cc1 [Compound 76] | 0.0135
56 | CCc1nc2ccc(Cl)cn2c1C(=O)NCc1ccc(N2CCN(S(=O)(=O)C(F)(F)F)C(CC#N)=N2)cc1 [Compound 77] | 0.00794
57 | COC1=NN(c2ccc(CNC(=O)c3c(C(F)(F)F)nc4ccccn34)cc2F)CCN1S(=O)(=O)C(F)(F)F [Compound 79] | 0.00372
58 | CCc1nc2cc(NC)c(Cl)cn2c1C(=O)NCc1ccc(N2CCN(S(=O)(=O)C(F)(F)F)C=N2)c(F)c1 [Compound 80] | ≥ 0.501
59 | CCOc1cn2c(CC)c(C(=O)NCc3ccc(N4CCN(S(=O)(=O)C(F)(F)F)C=N4)c(F)c3)nc2nc1N1CCCC1 [Compound 81] | ≥ 0.501
60 | CCc1nc2nc(N3CCCC3)c(Cl)cn2c1C(=O)NCc1ccc(N2CCN(S(=O)(=O)C(F)(F)F)C=N2)c(F)c1 [Compound 82] | ≥ 0.501
61 | CCc1nc2nc(NC)c(Cl)cn2c1C(=O)NCc1ccc(N2CCN(S(=O)(=O)C(F)(F)F)C=N2)c(F)c1 [Compound 83] | 0.372
62 | CCc1nc2c(C)cc(Cl)cn2c1C(=O)NCc1ccc(N2CCN(S(=O)(=O)C(F)(F)F)C=N2)c(F)c1 [Compound 85] | 0.0955
63 | CCc1nc2nc(OC)c(Cl)cn2c1C(=O)NCc1ccc(N2CCN(S(=O)(=O)C(F)(F)F)C=N2)c(F)c1 [Compound 86] | 0.0891
64 | CCc1nc2c(Cl)cc(Cl)cn2c1C(=O)NCc1ccc(N2CCN(S(=O)(=O)C(F)(F)F)C=N2)c(F)c1 [Compound 87] | 0.0891
65 | CCc1nc2c(C)cc(F)cn2c1C(=O)NCc1ccc(N2CCN(S(=O)(=O)C(F)(F)F)C=N2)c(F)c1 [Compound 89] | 0.0832
66 | CCc1nc2nc3c(cn2c1C(=O)NCc1ccc(N2CCN(S(=O)(=O)C(F)(F)F)C=N2)c(F)c1)COCC3 [Compound 90] | 0.0741
67 | CCc1nc2cc(OC)c(Cl)cn2c1C(=O)NCc1ccc(N2CCN(S(=O)(=O)C(F)(F)F)C=N2)c(F)c1 [Compound 93] | 0.049
68 | CCc1nc2ccc(Cl)cn2c1C(=O)NCc1ccc(N2CCNC(OC)=N2)cc1 [Compound 96] | 0.0363
69 | CCc1nc2cc(Br)c(C)cn2c1C(=O)NCc1ccc(N2CCN(S(=O)(=O)C(F)(F)F)C=N2)c(F)c1 [Compound 97] | 0.0339
70 | COC1=NN(c2ccc(CNC(=O)c3c(C(F)(F)F)nc4n3CCCC4)cc2)CCN1S(=O)(=O)C(F)(F)F [Compound 98] | 0.0331
71 | O=C(NCc1ccc(N2CCN(S(=O)(=O)C(F)(F)F)C=N2)c(F)c1)c1c(Br)nc2n1CCC2 [Compound 99] | 0.0324
